From ChEMBL document CHEMBL1131507, “Arylpiperazines with serotonin-3 antagonist activity: a comparative molecular field analysis” (J Med Chem, 1998)

Target: T1, Serotonin 3 (5-HT3) receptor (Rattus norvegicus, UniProt P35563+Q9JJ16)
T1 sequence (P35563 whole entry): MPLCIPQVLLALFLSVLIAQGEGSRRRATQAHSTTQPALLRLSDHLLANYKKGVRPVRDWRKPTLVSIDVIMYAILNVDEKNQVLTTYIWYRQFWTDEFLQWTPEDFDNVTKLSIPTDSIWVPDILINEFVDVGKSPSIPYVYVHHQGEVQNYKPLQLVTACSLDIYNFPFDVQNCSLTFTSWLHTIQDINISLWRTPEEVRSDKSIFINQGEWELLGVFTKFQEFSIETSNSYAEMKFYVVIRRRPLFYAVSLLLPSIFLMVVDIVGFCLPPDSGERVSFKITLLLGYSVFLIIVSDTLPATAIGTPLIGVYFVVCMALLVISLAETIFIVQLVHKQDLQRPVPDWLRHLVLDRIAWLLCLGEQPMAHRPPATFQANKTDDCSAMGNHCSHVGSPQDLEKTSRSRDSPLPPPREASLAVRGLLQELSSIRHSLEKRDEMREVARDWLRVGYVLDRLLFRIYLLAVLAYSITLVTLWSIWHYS
T1 sequence (Q9JJ16 whole entry): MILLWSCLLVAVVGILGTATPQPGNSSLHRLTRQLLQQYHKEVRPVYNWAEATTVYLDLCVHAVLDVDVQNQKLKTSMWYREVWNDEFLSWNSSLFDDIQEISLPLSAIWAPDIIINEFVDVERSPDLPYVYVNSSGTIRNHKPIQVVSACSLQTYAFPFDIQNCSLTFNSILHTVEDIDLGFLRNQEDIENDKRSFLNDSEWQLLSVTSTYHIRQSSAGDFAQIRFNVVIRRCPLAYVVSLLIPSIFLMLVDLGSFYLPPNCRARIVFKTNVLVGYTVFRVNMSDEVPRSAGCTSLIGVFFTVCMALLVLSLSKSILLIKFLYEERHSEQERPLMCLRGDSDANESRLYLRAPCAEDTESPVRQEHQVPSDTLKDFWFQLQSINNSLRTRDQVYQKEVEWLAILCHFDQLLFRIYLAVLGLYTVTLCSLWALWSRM
Assay: Rat 5-hydroxytryptamine 3 receptor (5-HT3) antagonist
Type: functional

SMILES | Ki
c1ccc2c3c(c(N4CCNCC4)nc2c1)CCCC3 | 0.1 nM
CCN1CCN(c2nc3ccccc3c3c2cc(OC)c2ccccc23)CC1 | 224 nM
CN1CCN(c2nc3ccccc3c3c2CCCC3)CC1 | 0.0977 nM
CN(C)CCSc1nc2ccccc2c2c1COc1ccccc1-2 | 10000 nM
c1ccc2c(c1)ccc1c(N3CCNCC3)nc3ccccc3c12 | 132 nM
CN(C)CCSc1nc2ccccc2c2c1ccc1ccccc12 | 10000 nM
COc1cc2c(SCCN(C)C)nc3ccccc3c2c2ccccc12 | 10000 nM
CN1CCN(c2nc3ccccc3c3c2CN(C)CC3)CC1 | 3.16 nM
CN1CCN(c2nc3ccccc3c3c2CCC3)CC1 | 0.0708 nM
CN1CCN(c2nc3ccccc3c3c2CSCC3)CC1 | 0.398 nM
CCc1c(C)c(N2CCN(C)CC2)nc2ccccc12 | 0.537 nM
CN(C)CCSc1nc2ccccc2c2c1CCc1ccccc1-2 | 10000 nM
